Laboratory results: patent US11739074B2, “Ras inhibitors” (Revolution Medicines, Inc., priority 2019, dated 2023)
Read-outs that look alike come from different tables or passages of the source.

What was measured:
[1] = tested on: AsPC-1 (K-Ras G12D); assay: Potency assay: pERK in AsPC-1 cells; assay type: cell-based; details: Homo sapiens
[2] = tested on: AsPC-1 (K-Ras G12D); assay: CellTiter-Glo cell viability assay, AsPC-1; assay type: cell-based; details: Homo sapiens, ASPC1, 120 h
How it was run: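 Compounds dispensed directly onto seeded AsPC-1 (K-Ras G12D) or NCI-H358 (K-Ras G12C) cells; CellTiter-Glo luminescence read on day 5 after ~30 min equilibration to room temperature. Signal normalized to DMSO average (%) and fit by four-parameter logistic.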

[3] = ASPC1, read-out: pERK EC50 (AsPC-1 KRAS G12D)
[4] = read-out: AsPC-1 Cell Viability IC50, AsPC-1, K-Ras G12D, 5-day treatment
[5] = ASPC1, AsPC-1 cells, K-Ras G12D, read-out: pERK EC50 (AsPC-1 KRAS G12D)
[6] = AsPC-1, K-Ras G12D, 5-day treatment, read-out: AsPC-1 Cell Viability IC50

Row | SMILES | EC50 [1, 3] | IC50 [2, 4] | EC50 [1, 5] | IC50 [2, 6]
1 | CCn1c(-c2cccnc2[C@H](C)OC)c2c3cc(ccc31)-c1cc(O)cc(c1)C[C@H](NC(=O)[C@H](C(C)C)N(C)C(=O)CN(C)C(=O)[C@@H]1CN1CCO)C(=O)N1CCC[C@H](N1)C(=O)OCC(C)(C)C2 (stereo partly shown) [Compound 162] | < 5 µM | 1 to 10 µM |  | 
2 | CCn1c(-c2cccnc2[C@H](C)OC)c2c3cc(ccc31)-c1cc(O)cc(c1)C[C@H](NC(=O)[C@H](C(C)C)N(C)C(=O)C13CC(CN1C(=O)[C@@H]1CN1)C3)C(=O)N1CCC[C@H](N1)C(=O)OCC(C)(C)C2 [Compound 163] |  |  | < 5 µM | 1 to 10 µM
3 | CCn1c(-c2cccnc2[C@H](C)OC)c2c3cc(ccc31)-c1cc(O)cc(c1)C[C@H](NC(=O)[C@H](C(C)C)N(C)C(=O)C13CC(CN1C(=O)[C@H]1CN1)C3)C(=O)N1CCC[C@H](N1)C(=O)OCC(C)(C)C2 [Compound 164] |  |  | < 5 µM | 1 to 10 µM
4 | CCn1c(-c2cccnc2[C@H](C)OC)c2c3cc(ccc31)-c1cc(O)cc(c1)C[C@H](NC(=O)[C@H](C(C)C)N(C)C(=O)[C@]13C[C@H]1CCN3C(=O)[C@@H]1CN1)C(=O)N1CCC[C@H](N1)C(=O)OCC(C)(C)C2 [Compound 166] |  |  | < 5 µM | 1 to 10 µM
5 | CCn1c(-c2cccnc2[C@H](C)OC)c2c3cc(ccc31)-c1cc(O)cc(c1)C[C@H](NC(=O)[C@H](C(C)C)N(C)C(=O)[C@H]1C[C@H](NC(=O)[C@@H]3CN3)C1)C(=O)N1CCC[C@H](N1)C(=O)OCC(C)(C)C2 [Compound 167] |  |  | < 5 µM | 1 to 10 µM
6 | CCn1c(-c2cccnc2[C@H](C)OC)c2c3cc(ccc31)-c1cc(O)cc(c1)C[C@H](NC(=O)[C@H](C(C)C)N(C)C(=O)[C@@H]1CCN(C(=O)[C@@H]3CN3)C1)C(=O)N1CCC[C@H](N1)C(=O)OCC(C)(C)C2 [Compound 172] |  |  | < 5 µM | 1 to 10 µM
7 | CCn1c(-c2cccnc2[C@H](C)OC)c2c3cc(ccc31)-c1cc(O)cc(c1)C[C@H](NC(=O)[C@H](C(C)C)N(C)C(=O)N1CCCN(C(=O)[C@@H]3CN3)CC1)C(=O)N1CCC[C@H](N1)C(=O)OCC(C)(C)C2 [Compound 173] |  |  | < 5 µM | 1 to 10 µM
8 | CCn1c(-c2cccnc2[C@H](C)OC)c2c3cc(ccc31)-c1cc(O)cc(c1)C[C@H](NC(=O)[C@H](C(C)C)N(C)C(=O)CC1CN(C(=O)[C@@H]3CN3)C1)C(=O)N1CCC[C@H](N1)C(=O)OCC(C)(C)C2 [Compound 178] |  |  | < 5 µM | > 10 µM
9 | CCn1c(-c2cccnc2[C@H](C)OC)c2c3cc(ccc31)-c1cc(O)cc(c1)C[C@H](NC(=O)[C@H](C(C)C)N(C)C(=O)CC1CN(C(=O)[C@H]3CN3)C1)C(=O)N1CCC[C@H](N1)C(=O)OCC(C)(C)C2 [Compound 179] |  |  | < 5 µM | > 10 µM
10 | CCn1c(-c2cccnc2[C@H](C)OC)c2c3cc(ccc31)-c1cc(O)cc(c1)C[C@H](NC(=O)[C@H](C(C)C)N(C)C(=O)[C@H]1C[C@H](NC(=O)[C@H]3CN3)C1)C(=O)N1CCC[C@H](N1)C(=O)OCC(C)(C)C2 [Compound 182] |  |  | < 5 µM | > 10 µM
11 | CCn1c(-c2cccnc2[C@H](C)OC)c2c3cc(ccc31)-c1cc(O)cc(c1)C[C@H](NC(=O)[C@H](C(C)C)N(C)C(=O)N1CCN(C(=O)[C@H]3CN3)CC1=O)C(=O)N1CCC[C@H](N1)C(=O)OCC(C)(C)C2 [Compound 183] |  |  | < 5 µM | > 10 µM
12 | CCn1c(-c2cccnc2[C@H](C)OC)c2c3cc(ccc31)-c1cc(O)cc(c1)C[C@H](NC(=O)[C@H](C(C)C)N(C)C(=O)[C@]1(F)CCN(C(=O)[C@@H]3CN3)C1)C(=O)N1CCC[C@H](N1)C(=O)OCC(C)(C)C2 [Compound 184] |  |  | < 5 µM | 1 to 10 µM
13 | CCn1c(-c2cccnc2[C@H](C)OC)c2c3cc(ccc31)-c1cc(O)cc(c1)C[C@H](NC(=O)[C@H](C(C)C)N(C)C(=O)[C@@]1(F)CCN(C(=O)[C@@H]3CN3)C1)C(=O)N1CCC[C@H](N1)C(=O)OCC(C)(C)C2 [Compound 185] |  |  | < 5 µM | 1 to 10 µM
14 | CCn1c(-c2cccnc2[C@H](C)OC)c2c3cc(ccc31)-c1cc(O)cc(c1)C[C@H](NC(=O)[C@H](C(C)C)N(C)C(=O)c1ccc(NC(=O)[C@@H]3CN3)cn1)C(=O)N1CCC[C@H](N1)C(=O)OCC(C)(C)C2 [Compound 187] |  |  | < 5 µM | 1 to 10 µM
15 | CCn1c(-c2cccnc2[C@H](C)OC)c2c3cc(ccc31)-c1cc(O)cc(c1)C[C@H](NC(=O)[C@H](C(C)C)N(C)C(=O)N1CCCN(C(=O)[C@H]3CN3)CC1)C(=O)N1CCC[C@H](N1)C(=O)OCC(C)(C)C2 [Compound 190] |  |  | < 5 µM | 1 to 10 µM
16 | CCn1c(-c2cccnc2[C@H](C)OC)c2c3cc(ccc31)-c1cc(O)cc(c1)C[C@H](NC(=O)[C@H](C(C)C)N(C)C(=O)[C@H]1CCN(C(=O)[C@@H]3N[C@@H]3C3CC3)C1)C(=O)N1CCC[C@H](N1)C(=O)OCC(C)(C)C2 [Compound 198] |  |  | < 5 µM | 0.1 to 1 µM

Row | SMILES | EC50 [1, 3] | IC50 [2, 4] | EC50 [1, 5] | IC50 [2, 6]
17 | CCn1c(-c2cccnc2[C@H](C)OC)c2c3cc(ccc31)-c1cc(O)cc(c1)C[C@H](NC(=O)[C@H](C(C)C)N(C)C(=O)N(C)CCN(C)C(=O)[C@H]1CN1)C(=O)N1CCC[C@H](N1)C(=O)OCC(C)(C)C2 [Compound 204] |  |  | < 5 µM | 1 to 10 µM
18 | CCn1c(-c2cccnc2[C@H](C)OC)c2c3cc(ccc31)-c1cc(O)cc(c1)C[C@H](NC(=O)[C@H](C(C)C)N(C)C(=O)N1CCN(C(=O)[C@@H]3CN3)CC1=O)C(=O)N1CCC[C@H](N1)C(=O)OCC(C)(C)C2 [Compound 205] |  |  | < 5 µM | > 10 µM
19 | CCn1c(-c2cccnc2[C@H](C)OC)c2c3cc(ccc31)-c1csc(n1)C[C@H](NC(=O)[C@H](C(C)C)N(C)C(=O)N1CC(N(C)C(=O)[C@@H]3CN3)C1)C(=O)N1CCC[C@H](N1)C(=O)OCC(C)(C)C2 [Compound 219] |  |  | < 5 µM | 1 to 10 µM
20 | CCn1c(-c2cccnc2[C@H](C)OC)c2c3cc(ccc31)-c1csc(n1)C[C@H](NC(=O)[C@H](C(C)C)N(C)C(=O)N(C)C1CN(C(=O)[C@H]3CN3)C1)C(=O)N1CCC[C@H](N1)C(=O)OCC(C)(C)C2 [Compound 220] |  |  | < 5 µM | 1 to 10 µM
21 | CCn1c(-c2cccnc2[C@H](C)OC)c2c3cc(ccc31)-c1csc(n1)C[C@H](NC(=O)[C@H](C(C)C)N(C)C(=O)N(C)C1CN(C(=O)[C@@H]3CN3)C1)C(=O)N1CCC[C@H](N1)C(=O)OCC(C)(C)C2 [Compound 221] |  |  | < 5 µM | 1 to 10 µM
22 | CCn1c(-c2cccnc2[C@H](C)OC)c2c3cc(ccc31)-c1csc(n1)C[C@H](NC(=O)[C@H](C(C)C)N(C)C(=O)N1CC[C@H](N(C)C(=O)[C@@H]3CN3)C1)C(=O)N1CCC[C@H](N1)C(=O)OCC(C)(C)C2 [Compound 229] |  |  | < 5 µM | 1 to 10 µM
23 | CCn1c(-c2cccnc2[C@H](C)OC)c2c3cc(ccc31)-c1cc(O)cc(c1)C[C@H](NC(=O)[C@H](C(C)C)N(C)C(=O)[C@@H]1CCCN(C(=O)[C@H]3CN3)C1)C(=O)N1CCC[C@H](N1)C(=O)OCC(C)(C)C2 [Compound 237] |  |  | < 5 µM | 1 to 10 µM
24 | CCn1c(-c2cccnc2[C@H](C)OC)c2c3cc(ccc31)-c1cc(O)cc(c1)C[C@H](NC(=O)[C@H](C(C)C)N(C)C(=O)[C@@H]1CCCN(C(=O)[C@@H]3CN3)C1)C(=O)N1CCC[C@H](N1)C(=O)OCC(C)(C)C2 [Compound 238] |  |  | < 5 µM | 1 to 10 µM
25 | CCn1c(-c2cccnc2[C@H](C)OC)c2c3cc(ccc31)-c1cc(O)cc(c1)C[C@H](NC(=O)[C@@H](C(C)C)N(C)C(=O)[C@@]1(C)CCCN1C(=O)[C@@H]1CN1)C(=O)N1CCC[C@H](N1)C(=O)OCC(C)(C)C2 [Compound 242] |  |  | < 5 µM | 1 to 10 µM
26 | CCn1c(-c2cccnc2[C@H](C)OC)c2c3cc(ccc31)-c1cc(O)cc(c1)C[C@H](NC(=O)[C@H](C(C)C)N(C)C(=O)[C@]13C[C@H]1CCN3C(=O)[C@H]1CN1)C(=O)N1CCC[C@H](N1)C(=O)OCC(C)(C)C2 [Compound 244] |  |  | < 5 µM | 1 to 10 µM
27 | CCn1c(-c2cccnc2[C@H](C)OC)c2c3cc(ccc31)-c1cc(O)cc(c1)C[C@H](NC(=O)[C@H](C(C)C)N(C)C(=O)[C@H]1C[C@H]3CC[C@@H](C1)N3C(=O)[C@H]1CN1)C(=O)N1CCC[C@H](N1)C(=O)OCC(C)(C)C2 [Compound 245] |  |  | < 5 µM | 1 to 10 µM
28 | CCn1c(-c2cccnc2[C@H](C)OC)c2c3cc(ccc31)-c1cc(O)cc(c1)C[C@H](NC(=O)[C@H](C(C)C)N(C)C(=O)[C@H]1C[C@H]3CC[C@@H](C1)N3C(=O)[C@@H]1CN1)C(=O)N1CCC[C@H](N1)C(=O)OCC(C)(C)C2 [Compound 246] |  |  | < 5 µM | 1 to 10 µM
29 | CCn1c(-c2cccnc2[C@H](C)OC)c2c3cc(ccc31)-c1cc(O)cc(c1)C[C@H](NC(=O)[C@H](C(C)C)N(C)C(=O)[C@H]1CCCCN(C(=O)[C@H]3CN3)C1)C(=O)N1CCC[C@H](N1)C(=O)OCC(C)(C)C2 [Compound 247] |  |  | < 5 µM | 1 to 10 µM
30 | CCn1c(-c2cccnc2[C@H](C)OC)c2c3cc(ccc31)-c1cc(O)cc(c1)C[C@H](NC(=O)[C@H](C(C)C)N(C)C(=O)N1CC[C@H](N(C)C(=O)[C@H]3CN3)C1)C(=O)N1CCC[C@H](N1)C(=O)OCC(C)(C)C2 [Compound 254] |  |  | < 5 µM | > 10 µM
31 | CCn1c(-c2cccnc2[C@H](C)OC)c2c3cc(ccc31)-c1cc(O)cc(c1)C[C@H](NC(=O)[C@H](C(C)C)N(C)C(=O)N1CC[C@H](N(C)C(=O)[C@@H]3CN3)C1)C(=O)N1CCC[C@H](N1)C(=O)OCC(C)(C)C2 [Compound 255] |  |  | < 5 µM | 1 to 10 µM
32 | CCn1c(-c2cccnc2[C@H](C)OC)c2c3cc(ccc31)-c1cc(O)cc(c1)C[C@H](NC(=O)[C@H](C(C)C)N(C)C(=O)CN(C)C(=O)[C@@H]1CN1CCCN1CCCC1=O)C(=O)N1CCC[C@H](N1)C(=O)OCC(C)(C)C2 (stereo partly shown) [Compound 269] | < 5 µM | 1 to 10 µM |  | 
